Data on 19 compounds can be found in US8466289B2, “Heterocyclic sulfonamide derivatives” (Novartis AG, priority 2009, dated 2013).

A word on the % inhibition: it is the drop in the measured response relative to a control, in per cent. Low readings indicate a response near the control, high ones a response far below the control. Broadly, the GI50 is the concentration that inhibits growth by half. Low values mean more potent growth inhibition, high ones less potent growth inhibition.

Test [1] relates to BRAF-MEK-ERK cascade (activated BRAF (V599E), unactive MEK1, unactive MAP Kinase 2/ERK2). Nature of the test: BRAF-MEK-ERK enzymatic cascade assay (TR-FRET). The class given is biochemical, human. To be noted: compounds screened at 10 μM, 45 minutes pre-incubation with enzymes, 100 μM ATP. From the text: A BRAF-MEK-ERK cascade assay is used to evaluate the effects of the compounds as inhibitors of the MAP kinase pathway. An enzymatic cascade assay is set up using recombinant human activated BRAF (V599E) kinase (Cat No. 14-557), human full length unactive MEK1 kinase (Cat No. 14-706) and human full length unactive MAP Kinase 2/ERK2 (Cat No. 14-536) enzymes procured from Upstate. TR-FRET (Time resolved fluorescence resonance energy transfer) detection technology is used for the read out. The assay buffer solution contains 50 mM Tris pH 7.5, 10 mM MgCl2, 1 mM DTT, 0.01% Tween 20, 0.1 nM activated BRAF, 2 nM unactive MEK1, 10 nM unactive ERK2, 100 μM ATP and 500 nM long chain biotin-peptide substrate (LCB-FFKNIVTPRTPPP) in a 384 well format. The kinase reaction is stopped after 90 minutes with 10 mM EDTA and Lance detection mix (2 nM Eu-labeled phospho-serine/threonine antibody (Cat. No. AD0176-Perkin Elmer), 20 nM SA-APC (Cat No. CR130-100-Perkin Elmer) is added. The TR-FRET signal (Excitation at 340 nm, Emission at 615 nm and 665 nm) is read with 50 μs delay time on a Victor3 V fluorimeter. The data is calculated using the ratio of readings at 665 nm to 615 nm. The final concentration of DMSO is 2.5% in the assay. Compounds are screened at 10 μM concentration with pre-incubation of the enzymes in the presence of test compound for 45 minutes.
Each individual IC50 is determined using a 10 point dose response curve generated by GraphPad Prism software Version 4 (San Diego, Calif., USA) using non linear regression curve fit for sigmoidal dose response (variable slope).
These assays described above are fully detailed in Han, Shulin, et. al., Bioorganic & Medicinal Chemistry Letters (2005) 15, 5467-5473, and in Yeh, et. al., Clin Cancer Res (2007) 13 (5), 1576-1583.
(§1) The compounds of the above Examples were evaluated as inhibitors of the MAP kinase pathway in a BRAF-MEK-ERK enzymatic cascade assay and in the cell viability assay described above.
(Time-resolved FRET reads energy transfer from a long-lived donor to a nearby acceptor.)

In a further test the test system is A375 cells. In words: cell viability assay in A375 cells using XTT. Conditions: Homo sapiens, A-375, 72 h, XTT read three days after compound addition. The class given is cell-based. On the procedure: The cell viability assay in A375 cells is set up in a 96-well plate format using XTT.
XTT is a yellow tetrazolium salt that is cleaved to an orange formazan dye by the mitochondria of metabolically active cells. The procedure allows for rapid determination in a microtitre plate, to give reproducible and sensitive results.
A375 cells are grown in DMEM media containing 10% FBS and 1 mM sodium pyruvate. Cells are trypsinized and seeded at 1000 cells/well. After allowing the cells to adhere overnight, compound is added to the wells at the following final concentrations: 10, 3, 1, 0.3, 0.1, 0.03, 0.01, 0.001, and 0.0001 μM. The assay is set up in triplicates for each concentration. DMSO concentrations are kept at 0.5%/well. Three days after compound addition, the XTT assay is performed. Wells are washed once with PBS. 100 μL of DMEM media without phenol red or FBS is added to each well. A working solution of XTT containing 1 mg/ml XTT and 100 μL of PMS (stock concentration 0.383 mg/ml) per 5 ml is prepared. 50 μL of the working solution of XTT is added to each well. Absorbance of the plate is read at 465 nm using a Spectramax 190 (Molecular Devices). The absorbance from wells with media and XTT alone, but without cells is considered the blank and subtracted from readings from all wells.
Percentage viability is calculated considering the blank subtracted value from wells treated with DMSO alone as 100% viable. GI50 values are calculated using Graphpad Prism, using non-linear regression curve fit for sigmoidal dose response (variable slope).
The cell viability assay is further described in Scudiero, et. al., Cancer Research (1988) 48, 4827-4833; Weislow, et. al., J. Natl. Cancer Institute, (1989) 81, 577-586; and Roehm, et. al., J. Immunol. Methods [1991]142:257-265.
as §1
Background: Tetrazolium dyes change colour on reduction, which living cells bring about.

On to `Cc1c(Nc2ccc(I)cc2F)c(NS(=O)(=O)C2CC2)c2n(c1=O)CCS2` [Example 19A, Cyclopropanesulfonic acid [7-(2-fluoro-4-iodo-phenylamino)-6-methyl-5-oxo-2,3-dihydro-5H-thiazolo[3,2-a]pyridin-8-yl]-amide], for which the “% inhibition” value in test [1] was 100%. The compound further yielded a GI50 in the test on A375 cells of 0.3 nM.
Regarding `Cc1c(Nc2ccc(I)cc2F)c(NS(=O)(=O)C2(CO)CC2)c2n(c1=O)CCS2` [Example 22A, 1-Hydroxymethyl-cyclopropanesulfonic acid [7-(2-fluoro-4-iodo-phenylamino)-6-methyl-5-oxo-2,3-dihydro-5H-thiazolo[3,2-a]pyridin-8-yl]-amide], the “% inhibition” value in test [1] is listed as 97%. Further, in the test with A375 cells, the GI50 was determined as 61 nM.
The matching figures for `Cc1c(Nc2ccc(I)cc2F)c(NS(=O)(=O)C2CC2)c2n(c1=O)CCO2` [Example 7A, Cyclopropanesulfonic acid [7-(2-fluoro-4-iodo-phenylamino)-6-methyl-5-oxo-2,3-dihydro-5H-oxazolo[3,2-a]pyridin-8-yl]-amide]: 99% and 26 nM.
The matching figures for `Cc1c(Nc2ccc(I)cc2F)c(NS(=O)(=O)C2CCC2)c2n(c1=O)CCS2` [Example 26A, Cyclobutanesulfonic acid [7-(2-fluoro-4-iodo-phenylamino)-6-methyl-5-oxo-2,3-dihydro-5H-thiazolo[3,2-a]pyridin-8-yl]-amide]: 100% and 156 nM.
The matching figures for `Cc1c(Nc2ccc(I)cc2F)c(NS(=O)(=O)CC2(C)COC2)c2n(c1=O)CCO2` [Example 16A, N-(7-(2-fluoro-4-iodophenylamino)-6-methyl-5-oxo-3,5-dihydro-2H-oxazolo[3,2-a]pyridin-8-yl)-1-(3-methyloxetan-3-yl)methanesulfonamide]: 100% and 1300 nM.
In the case of `Cc1c(Nc2ccc(I)cc2F)c(NS(=O)(=O)C2CC(O)C2)c2n(c1=O)CCN2` (stereo not drawn) [Example 6A, 3-Hydroxy-cyclobutanesulfonic acid [7-(2-fluoro-4-iodo-phenylamino)-6-methyl-5-oxo-1,2,3,5-tetrahydro-imidazo[1,2-a]pyridin-8-yl]-amide], the “% inhibition” value in test [1] is on record as 100%. The same compound gave a GI50 with A375 cells of 1380 nM.
For `Cc1c(Nc2ccc(I)cc2F)c(NS(=O)(=O)C2CC2CO)c2n(c1=O)CCO2` (stereo not drawn) [Example 8A, 2-Hydroxymethyl-cyclopropanesulfonic acid [7-(2-fluoro-4-iodo-phenylamino)-6-methyl-5-oxo-2,3-dihydro-5H-oxazolo[3,2-a]pyridin-8-yl]-amide] the same measures were 100% and 122 nM.
As for `Cc1c(Nc2ccc(I)cc2F)c(NS(=O)(=O)C2(CC(O)CO)CC2)c2n(c1=O)CCN2` (stereo not drawn) [Example 5A, 1-(2,3-Dihydroxy-propyl)-cyclopropanesulfonic acid [7-(2-fluoro-4-iodo-phenylamino)-6-methyl-5-oxo-1,2,3,5-tetrahydro-imidazo[1,2-a]pyridin-8-yl]-amide], in test [1], the “% inhibition” value came to 100%. The same compound came in with a GI50 in the test with A375 cells of 293 nM.
For `Cc1c(Nc2ccc(I)cc2F)c(NS(=O)(=O)C2(CC(O)CO)CC2)c2n(c1=O)CCS2` (stereo not drawn) [Example 20A, 1-(2,3-Dihydroxy-propyl)-cyclopropanesulfonic acid [7-(2-fluoro-4-iodo-phenylamino)-6-methyl-5-oxo-2,3-dihydro-5H-thiazolo[3,2-a]pyridin-8-yl]-amide] the same measures were 100% and 54 nM.
The matching figures for `Cc1c(Nc2ccc(I)cc2F)c(NS(=O)(=O)C2CC(O)C2)c2n(c1=O)CCO2` (stereo not drawn) [Example 13A, 3-Hydroxy-cyclobutanesulfonic acid [7-(2-fluoro-4-iodo-phenylamino)-6-methyl-5-oxo-2,3-dihydro-5H-oxazolo[3,2-a]pyridin-8-yl]-amide]: 100% and 122 nM.
On to `Cc1c(Nc2ccc(I)cc2F)c(NS(=O)(=O)C2CC(O)C2)c2n(c1=O)CCS2` (stereo not drawn) [Example 25A, 3-Hydroxy-cyclobutanesulfonic acid [7-(2-fluoro-4-iodo-phenylamino)-6-methyl-5-oxo-2,3-dihydro-5H-thiazolo[3,2-a]pyridin-8-yl]-amide], for which, in test [1], the “% inhibition” value worked out at 100%. Further, the GI50 in the test with A375 cells is 922 nM.
Turning to `Cc1c(Nc2ccc(I)cc2F)c(NS(=O)(=O)CCC2COC2)c2n(c1=O)CCO2` [Example 17A, N-(7-(2-fluoro-4-iodophenylamino)-6-methyl-5-oxo-3,5-dihydro-2H-oxazolo[3,2-a]pyridin-8-yl)-2-(oxetan-3-yl)ethanesulfonamide], halving of growth in the test on A375 cells (GI50) required 1730 nM.
With `Cc1c(Nc2ccc(I)cc2F)c(NS(=O)(=O)CCC(CO)CO)c2n(c1=O)CCO2` [Example 18A, N-(7-(2-fluoro-4-iodophenylamino)-6-methyl-5-oxo-3,5-dihydro-2H-oxazolo[3,2-a]pyridin-8-yl)-4-hydroxy-3-(hydroxymethyl)butane-1-sulfonamide], the “% inhibition” value in test [1] was 100%. The compound also yielded a GI50 in the test on A375 cells of 4260 nM.
As to `Cc1c(Nc2ccc(I)cc2F)c(NS(=O)(=O)C2CC2)c2n(c1=O)CCN2` [Example 3A, Cyclopropanesulfonic acid [7-(2-fluoro-4-iodo-phenylamino)-6-methyl-5-oxo-1,2,3,5-tetrahydro-imidazo[1,2-a]pyridin-8-yl]-amide], the “% inhibition” value in test [1] is given as 100%. Also, in the test with A375 cells, it took 19 nM to inhibit growth by half (GI50).
The matching figures for `Cc1c(Nc2ccc(Br)cc2F)c(NS(=O)(=O)C2CC2)c2n(c1=O)CCN2` [Example 2A, Cyclopropanesulfonic acid [7-(4-bromo-2-fluoro-phenylamino)-6-methyl-5-oxo-1,2,3,5-tetrahydro-imidazo[1,2-a]pyridin-8-yl]-amide]: 100% and 800 nM.
The matching figures for `Cc1c(Nc2ccc(I)cc2F)c(NS(=O)(=O)C2(CCCO)CC2)c2n(c1=O)CCO2` [Example 12A, 1-(3-Hydroxy-propyl)-cyclopropanesulfonic acid [7-(2-fluoro-4-iodo-phenylamino)-6-methyl-5-oxo-2,3-dihydro-5H-oxazolo[3,2-a]pyridin-8-yl]-amide]: 100% and 11 nM.
For `Cc1c(Nc2ccc(I)cc2F)c(NS(=O)(=O)N(C)C)c2n(c1=O)CCS2` [Example 23A, N-[7-(2-Fluoro-4-iodo-phenylamino)-6-methyl-5-oxo-2,3-dihydro-5H-thiazolo[3,2-a]pyridin-8-yl]-dimethylaminosulfonamide] the same measures were 100% and 107 nM.
Take `Cc1c(Nc2ccc(Br)cc2F)c(NS(=O)(=O)C2(CC(O)CO)CC2)c2n(c1=O)CCN2` (stereo not drawn) [Example 4A, 1-(2,3-Dihydroxy-propyl)-cyclopropanesulfonic acid [7-(4-bromo-2-fluoro-phenylamino)-6-methyl-5-oxo-1,2,3,5-tetrahydro-imidazo[1,2-a]pyridin-8-yl]-amide]: in test [1], the “% inhibition” value amounted to 100%. The compound also returned a GI50 in the test with A375 cells of 2880 nM.
On to `Cc1c(Nc2ccc(Br)cc2F)c(NS(=O)(=O)C2CC2)c2n(c1=O)CCN2Cc1ccccc1` [Example 1A, Cyclopropanesulfonic acid [1-benzyl-7-(4-bromo-2-fluoro-phenylamino)-6-methyl-5-oxo-1,2,3,5-tetrahydro-imidazo[1,2-a]pyridin-8-yl]-amide], for which, in test [1], the “% inhibition” value stood at 70%.
